# Data: patent US20190000760A1, “NANOPARTICLE-AQUEOUS DISPERSION LIQUID OF GLYCOSPHINGOLIPID” (REGiMMUNE Corporation, priority 2015, published 2019)
# Assay: Average particle size and particle distribution by dynamic light scattering (Zetasizer Nano ZS)
# Assay type: physicochemical
# Conditions: for average particle size / particle distribution: DMSO as organic solvent
# Procedure: (§1) KRN7000 was weighed in a test tube, 99.5% ethanol was added to adjust the concentration to 4 mg/mL, and the mixture was then heated to 76° C. to completely dissolve the KRN7000, so that a glycosphingolipid solution was obtained (the same applies for RCAI-56 or RCAI-61). On the other hand, inulin was weighed in a test tube, sterilized distilled water was added to adjust the concentration to 35 mg/mL, and the inulin was then completely dissolved to obtain an inulin solution. 50 μL of the glycosphingolipid solution was transferred to an additionally provided test tube, 950 μL of the inulin solution was added thereto, and quickly mixed by vortex, the mixture was left standing overnight at room temperature, and an equal amount of pure water was then added to reduce the concentration to ½. For the obtained dispersion solution, the average particle size and particle distribution were measured by a dynamic light scattering method (Zetasizer Nano ZS, Malvern). […] The final components of the glycosphingolipid hydrophilic protective colloidal solution obtained by this method, and the concentrations thereof are as follows: 0.1 mg/mL of glycosphingolipid, 17.5 mg/mL of inulin and 2.5% of ethanol.
# as §1, with “pullulan” for “inulin”, “10” for “35”, “a pullulan” for “an inulin”, “glycosphingolipid” for “glycosphingolipid hydrophilic”, “5.0” for “17.5”
# as §1, with “HPMC” for “inulin”, “1” for “35”, “a HPMC” for “an inulin”, “glycosphingolipid” for “glycosphingolipid hydrophilic”, “0.5” for “17.5”
# Preparation of a hydrophobic colloidal solution of a glycosphingolipid using DMSO as an organic solvent was examined. KRN7000 was weighed in a test tube, DMSO was added to adjust the concentration to 2 mg/mL, and the mixture was heated to 85° C. to completely dissolve the KRN7000, so that a glycosphingolipid solution was obtained. […]
# [1] = inulin, 0.4 mg/mL glycosphingolipid, 28 mg/mL inulin, 20% DMSO
# [2] = Protective colloid: HPMC, 0.1 mg/mL glycosphingolipid, 0.5 mg/mL HPMC, 2.5% ethanol
# [3] = Protective colloid: Inulin, 0.1 mg/mL glycosphingolipid, 17.5 mg/mL inulin, 2.5% ethanol
# [4] = Protective colloid: None, glycosphingolipid dissolved in ethanol, mixed with water
# [5] = Protective colloid: Pullulan, 0.1 mg/mL glycosphingolipid, 5.0 mg/mL pullulan, 2.5% ethanol
Structure (SMILES),average particle size [1] [nm],particle distribution [1],average particle size (protective colloid not used),particle distribution (protective colloid not used),"Average particle size (diameter, nm) [2] [nm]",Particle size distribution [2],"Average particle size (diameter, nm) [3] [nm]",Particle size distribution [3],"Average particle size (diameter, nm) [4] [nm]",Particle size distribution [4],"Average particle size (diameter, nm) [5] [nm]",Particle size distribution [5]
"CCCCCCCCCCCCCCCCCCCCCCCCCC(=O)N[C@@H](CO[C@H]1O[C@H](CO)[C@H](O)[C@H](O)[C@H]1O)[C@H](O)[C@H](O)CCCCCCCCCCCCCC [KRN7000, (2S,3S,4R)-1-O-(α-D-galactosyl)-N-hexacosanoyl-2-amino-1,3,4-octadecanetriol]",345.5,monodispersed particles,large average particle size,polydispersed particles,192,Monodispersed,156,Monodispersed,1536,Polydispersed,149,Monodispersed
CCCCCCCCCCCCCCCCCCCCCCCCCC(=O)N[C@@H](CO[C@H]1CC(CO)[C@H](O)[C@H](O)C1O)[C@H](O)[C@H](O)CCCCCCCCCCCCCC (stereo partly shown) [RCAI-56],,,,,380,Monodispersed,169,Monodispersed,435,Polydispersed,174,Monodispersed
CCCCCCCCCCCCCCCCCCCCCCCCCC(=O)N[C@@H](CO[C@H]1O[C@H](COC)[C@H](O)[C@H](O)[C@H]1O)[C@H](O)[C@H](O)CCCCCCCCCCCCCC [RCAI-61],,,,,191,Monodispersed,298,Monodispersed,683,Polydispersed,151,Monodispersed
